27 compounds from US20100056516A1 (priority 2006, published 2010) can be followed below.

Where only a bound is given, the exact number is not on record here.

Assay [1] concerns HXB2 virus. As to the kind of experiment: microbe, parasite or virus in culture. The settings on record: Human immunodeficiency virus 1, HXB2, HeLaP4-2, read-out: antiviral IC50 (SCIA-B). In kind it is cell-based, HIV. In a few lines:
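HXB2 virus used to infect HeLa P4-2 cells in a single-cycle format; inhibition of acute infection is measured.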

Assay [2] concerns the target HIV integrase (Human immunodeficiency virus type 1 group M subtype B, UniProt P04585). Description: integrase strand transfer assay (STA). The class given is biochemical. The settings on record: integrase strand transfer; read-out: IC50 in the STA assay.

For `CCOC(=O)c1c(O)c2cc(C(=O)N3CCC(CCc4ccccc4)CC3)cnc2n(O)c1=O` [Example 84, Ethyl 1,4-dihydroxy-2-oxo-6-{[4-(2-phenylethyl)piperidin-1-yl]carbonyl}-1,2-dihydro-1,8-naphthyridine-3-carboxylate], the concentration for half-maximal inhibition (IC50) (usually the concentration at which inhibition is half-maximal) in assay [1] is less than 100 µM; in assay [2], less than 50 µM.
For `O=c1cc(N2CCCC(F)C2)c2cccnc2n1O` (stereo not drawn) [Example 118, 4-(3-fluoropiperidin-1-yl)-1-hydroxy-1,8-naphthyridin-2(1H)-one], in that order: less than 100 µM and less than 50 µM.
In the same order, the values of `O=c1c(-c2ccccc2)c(O)c2cc(-c3cccc(-c4ccccc4)c3)cnc2n1O` [Example 54, 6-Biphenyl-3-yl-1,4-dihydroxy-3-phenyl-1,8-naphthyridin-2(1H)-one] are less than 100 µM and less than 50 µM.
In the same order, the values of `O=C(c1c(O)c2cccnc2n(O)c1=O)N1CCCCC1` [Example 8, 1,4-Dihydroxy-3-(piperidin-1-ylcarbonyl)-1,8-naphthyridin-2(1H)-one] are less than 100 µM and less than 50 µM.
Regarding `O=c1c(-c2ccccc2O)c(O)c2cccnc2n1O` [Example 46, 1,4-dihydroxy-3-(2-hydroxyphenyl)-1,8-naphthyridin-2(1H)-one], the IC50 in assay [1] is less than 100 µM; in assay [2], less than 50 µM.
As to `O=c1cc(-c2ccc(-c3ccn[nH]3)cc2)c2cccnc2n1O` [Example 188, 1-hydroxy-4-[4-(1H-pyrazol-5-yl)phenyl]-1,8-naphthyridin-2(1H)-one], the concentration for half-maximal inhibition (IC50) is less than 100 µM in assay [1] and less than 50 µM in assay [2].
For `CNS(=O)(=O)c1cccc(-c2cc(=O)n(O)c3ncccc23)c1` [Example 193, 3-(1-hydroxy-2-oxo-1,2-dihydro-1,8-naphthyridin-4-yl)-N-methylbenzenesulfona-mide], in that order: less than 100 µM and less than 50 µM.
In the same order, the values of `O=c1cc(NCc2ccncc2)c2cccnc2n1O` [Example 160, 1-hydroxy-4-[(4-pyridinylmethyl)amino]-1,8-naphthyridin-2 (1H-one)] are less than 100 µM and less than 50 µM.
For `CN(C(=O)c1c(O)c2cccnc2n(O)c1=O)C1CCNC1` (stereo not drawn) [Example 215, 1,4-Dihydroxy-N-methyl-2-oxo-N-pyrrolidin-3-yl-1,2-dihydro-1,8-naphthyridine-3-carboxamide], in that order: less than 100 µM and less than 50 µM.
Turning to `CC(C)(C)NC(=O)c1cccc(-c2cc(=O)n(O)c3ncccc23)c1` [Example 182], the IC50 in assay [1] was less than 100 µM; in assay [2], less than 50 µM.
Regarding `CCOC(=O)c1c(O)c2cc(C(=O)NC3CCCCC3)cnc2n(O)c1=O` [Example 86, ethyl-6-[(cyclohexylamino)carbonyl]-1,4-dihydroxy-2-oxo-1,2-dihydro-1,8-naphthyridine-3-carboxylate], the values for the IC50 in assay [1] and in assay [2] were less than 100 µM and less than 50 µM, respectively.
For `CCOC(=O)c1c(O)c2cc(-c3cccc(C#N)c3)cnc2n(O)c1=O` [Example 60, Ethyl 6-(3-cyanophenyl)-1,4-dihydroxy-2-oxo-1,2-dihydro-1,8-naphthyridine-3-carboxylate], in that order: more than 100 µM and less than 50 µM.
In the same order, the values of `CCOC(=O)c1c(O)c2cccnc2n(O)c1=O` [Example 1, Ethyl 1,4-dihydroxy-2-oxo-1,2-dihydro-1,8-naphthyridine-3-carboxylate] are less than 100 µM and less than 50 µM.
In the same order, the values of `O=c1c2cc(-c3ccccc3)ccc2c2cccnc2n1O` [Example 268, 5-Hydroxy-8-phenylbenzo[c]-1,8-naphthyridin-6(5H)-one] are less than 100 µM and less than 50 µM.
In the case of `COc1ccccc1NC(=O)c1c(O)c2cccnc2n(O)c1=O` [Example 11, 1,4-Dihydroxy-N-(2-methoxyphenyl)-2-oxo-1,2-dihydro-1,8-naphthyridine-3-carboxamide], the values for the IC50 in assay [1] and in assay [2] were less than 100 µM and less than 50 µM, respectively.
As to `Cc1cc(C)n(-c2cccc(-c3ccnc4c3c(O)cc(=O)n4O)c2)n1` [Example 229, 5-[3-(3,5-dimethyl-1H-pyrazol-1-yl)phenyl]-1,4-dihydroxy-1,8-naphthyridin-2(1H)-one], the half-maximal inhibitory concentration (IC50) was less than 100 µM in assay [1] and less than 50 µM in assay [2].
In the same order, the values of `Nc1cc(=O)n(O)c2ncccc12` [Example 99, 4-Amino-1-hydroxy-1,8-naphthyridin-2(1H)-one] are less than 100 µM and less than 50 µM.
In the same order, the values of `COc1ccc(NC(=O)c2c(O)c3cccnc3n(O)c2=O)cn1` [Example 14, 1,4-Dihydroxy-N-(6-methoxypyridine-3-yl)-2-oxo-1,2-dihydro-1,8-naphthyridine-3-carboxamide] are less than 100 µM and less than 50 µM.
For `O=c1cc(-c2cccc(-c3cccc(CNCc4ccccc4)c3)c2)c2cccnc2n1O` [Example 205, 4-{3′-[(benzylamino)methyl]biphenyl-3-yl}-1-hydroxy-1,8-naphthyridin-2(H)-one], the concentration for half-maximal inhibition (IC50) in assay [1] was less than 100 µM; in assay [2], less than 50 µM.
For `O=c1cc(NCc2ccccc2Cl)c2cccnc2n1O` [Example 141, 4-[(2-chlorobenzyl)amino]-1-hydroxy-1,8-naphthyridin-2(1H-one)], in that order: less than 100 µM and less than 50 µM.
In the case of `Nc1ccc(Cc2ccc(-c3cc(=O)n(O)c4ncccc34)cc2)cc1` [Example 239, 4-[4-(4-aminobenzyl)phenyl]-1-hydroxy-1,8-naphthyridin-2(1H)-one], the IC50 in assay [1] is less than 100 µM; in assay [2], less than 50 µM.
As to `CCOC(=O)c1c(N2CCc3ccc(-c4ccc(F)cc4)cc3C2)c2cccnc2n(O)c1=O` [Example 258, ethyl 4-[7-(4-fluorophenyl)-3,4-dihydroisoquinolin-2(1H)-yl]-1-hydroxy-2-oxo-1,2-dihydro-1,8-naphthyridine-3-carboxylate], the half-inhibitory concentration (IC50) is less than 100 µM in assay [1] and more than 50 µM in assay [2].
In the same order, the values of `CCOC(=O)c1c(O)c2cc(C(=O)NCc3ccccc3OC)cnc2n(O)c1=O` [Example 79, Ethyl 1,4-dihydroxy-6-{[2-methoxybenzyl)amino] carbonyl}-2-oxo-1,2-dihydro-1,8-naphthyridine-3-carboxylate] are less than 100 µM and less than 50 µM.
In the same order, the values of `CCOC(=O)c1c(O)c2cc(Br)cnc2n(O)c1=O` [Example 3, Ethyl 6-bromo-1,4-dihydroxy-2-oxo-1,2-dihydro-1,8-naphthyridine-3-carboxylate] are less than 100 µM and less than 50 µM.
For `O=c1cc(-c2cccc(CN3CCN(C(c4ccccc4)c4ccc(Cl)cc4)CC3)c2)c2cccnc2n1O` (stereo not drawn) [Example 207], in that order: less than 100 µM and less than 50 µM.
As for `O=c1cc(-c2cccc(O)c2)c2cccnc2n1O` [Example 237, 1-hydroxy-4-(3-hydroxyphenyl)-1,8-naphthyridin-2(1H)-one], the IC50 in assay [1] was less than 100 µM; in assay [2], less than 50 µM.
For `O=c1c(-c2c(F)cccc2F)c(O)c2cccnc2n1O` [Example 29, 3-(2,6-Difluorophenyl)-1,4-dihydroxy-1,8-naphthyridin-2(1H)-one], in that order: less than 100 µM and less than 50 µM.
